# Target: FLAGELLIN-SENSING 2 (FLS2) (Arabidopsis thaliana, UniProt Q9FL28)
# Test: microscale thermophoresis
# Assay type: binding
# Sequence of FLAGELLIN-SENSING 2 (FLS2) (Q9FL28 24-804): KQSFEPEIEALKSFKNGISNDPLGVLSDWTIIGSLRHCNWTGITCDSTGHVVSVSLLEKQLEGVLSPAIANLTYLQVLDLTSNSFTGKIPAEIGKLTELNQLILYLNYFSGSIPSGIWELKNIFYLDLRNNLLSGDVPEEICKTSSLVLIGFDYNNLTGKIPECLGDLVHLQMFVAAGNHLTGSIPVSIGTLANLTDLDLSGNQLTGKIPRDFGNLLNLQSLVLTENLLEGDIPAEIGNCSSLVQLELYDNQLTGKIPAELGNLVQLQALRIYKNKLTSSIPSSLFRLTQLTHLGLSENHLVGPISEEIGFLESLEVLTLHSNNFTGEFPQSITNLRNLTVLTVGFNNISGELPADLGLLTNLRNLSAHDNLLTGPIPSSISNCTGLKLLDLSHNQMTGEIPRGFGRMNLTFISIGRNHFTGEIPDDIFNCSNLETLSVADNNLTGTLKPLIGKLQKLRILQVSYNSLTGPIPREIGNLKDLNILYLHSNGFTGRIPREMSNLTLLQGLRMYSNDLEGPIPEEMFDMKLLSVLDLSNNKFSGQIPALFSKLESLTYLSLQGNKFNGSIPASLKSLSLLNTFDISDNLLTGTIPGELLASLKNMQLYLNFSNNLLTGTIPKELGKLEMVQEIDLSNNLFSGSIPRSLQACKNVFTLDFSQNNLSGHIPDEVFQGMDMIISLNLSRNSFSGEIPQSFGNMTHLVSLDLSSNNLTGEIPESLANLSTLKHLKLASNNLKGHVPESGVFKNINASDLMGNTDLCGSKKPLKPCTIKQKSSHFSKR
smiles,measurement,value
C=C(C)COc1ccc2c(C)c(CC(=O)N3CCN(CC(=O)NCCN(C)C)CC3)c(=O)oc2c1C [FIC04],Kd,93.9 ± 19.5 µM

# — paper PMC11557590 (Nature Communications, 2024)
